Experimental data as given in patent US20240336923A1, “DNAZYMES TARGETING CELL WALL SYNTHESIS ENZYMES AND USES THEREOF” (priority 2021, published 2024).
{CholTEG} = cholesterol-triethylene glycol

Columns and labels:
Format in all cases: cell-based
[1] = tested on: Pseudomonas aeruginosa (MDR-PA, ATCC® BAA-3105™) biofilm; test: Biofilm formation assays (crystal violet and CFU); details: TSB, 96 wells, DNAzyme 2.5 μM, 16 hours; for biofilm formation (crystal violet): FIG. 4A; for viable cells within the biofilm (CFU): FIG. 4B
Experimental: FIGS. 4A-B are graphs showing reduction in bacterial density (FIG. 4A) or colony-forming units (FIG. 4B) (vertical axis) in biofilms grown either with or without the indicated DNAzymes (2.5 μM) in 96 wells with tryptic soy broth (TSB) for 16 hours, after which non-adhered cells were removed, and biofilms were washed and stained with 0.1% crystal violet (FIG. 4A) or replating (FIG. 4B). Average and standard mean are depicted by horizontal bars and brackets. Scr is a control scramble DNAzyme (Scr nucleotide sequence is 5′-[…]/3CholTEG/; SEQ ID NO: 44). NT is No Treatment.
Biofilm assays. Bacterial strains were streaked from frozen LB+glycerol stocks onto LB agar plates and incubated for 24 h at 37° C. Single colonies were grown overnight at 37° C. in 3 ml of LB. Cultures were diluted 1:100 in TSB in a 96-well plate, and DNAzymes were added to a final concentration of 2.5 μM. Cultures were incubated at 37° C. without shaking for 16 hours. Non-adherent cells were removed, and biofilms were washed with PBS and either stained with crystal violet (0.1%), or biofilm cells were extracted using mild sonication (2-4 pulses of 5 seconds, amplitude 30%) for CFU determination. CFU was measured using serial dilutions of the bacterial suspensions and spots were plated on LB plates. CFU was determined as above.
To measure the ability of DNAzymes that target a transcript encoding a cell wall biosynthesis enzyme, to affect biofilm formation, bacteria were grown in TSB on plates, under conditions that favor biofilm formation. Representative DNAzymes tested included murG-162, murG-207, and murG-366.

[2] = tested on: Pseudomonas aeruginosa (MDR-PA, ATCC® BAA-3105™) biofilm; test: Scanning electron microscopy of biofilms grown with DNAzymes; details: stainless steel mesh, TSB, DNAzyme 1.25 μM twice, 48 hours; FIG. 5C
Experimental: FIGS. 5A-5C: Biofilm macrostructure and morphology of single bacterial cells are affected by DNAzymes targeting murG. Biofilms were grown on top of dense stainless steel mesh in TSB in 12 well plates with or without indicated DNAzymes (1.25 μM). 24 hours afterwards, an additional dose of DNAzymes was added to treated samples. Following 48 hours of overall inoculation, biofilms were fixated and dehydrated. The mesh with associated biofilms was imaged with scanning electron microscopy (SEM). The results are of a representative field of 3 independent repeats. (FIG. 5A). NT, scr, and murG162 as above) (FIG. 5B) Enlargements of representative zones, enabling detection of single-cell morphologies. (FIG. 5C) Overall measurements of the maximal thickness of dehydrated biofilms. (NT, scr, and murG162 as above)
To determine the effects of the representative DNAzymes on macro- and microstructure of treated biofilms, 3D structures of treated and untreated biofilms were examined using scanning electron microscopy (SEM).
To study the effects of DNAzyme treatment on biofilm structure, 3D topographies of the biofilms were generated to compare multiple areas of the biofilm. The biofilms were dehydrated, resulting in a uniform loss of volume percentage.

[3] = tested on: Pseudomonas aeruginosa (MDR-PA, ATCC® BAA-3105™) pre-established biofilm; test: DNAzyme treatment of pre-established biofilms without or with meropenem (CFU, SEM); details: DNAzyme 2.5 μM, 8 hours; for effect on meropenem activity against pre-established biofilms: PBS + 10 μM meropenem, FIG. 6B; for reduction of biofilm biomasses: mature 24 h biofilms, without or with meropenem, FIGS. 6A-6B
Experimental: FIGS. 6A-6C: DNAzymes can reduce viability and increase antibiotic sensitivity of cells from pre-established biofilms. Biofilms were grown in TSB in 12 well plates. 24 hours later, the medium was replaced with PBS (FIG. 6A) or with PBS+10 μM meropenem (FIG. 6B) in the presence or absence of the indicated DNAzymes, murG-162 or SCR (scramble control), […]. Following 8 hours, the adherent remaining cells were extracted, and the number of CFU was determined. (FIG. 6C) Biofilms were grown as described for FIG. 6B. The mesh with associated biofilms was imaged with SEM.
The effect of DNAzymes targeting murG on pre-established biofilms was studied by comparing the application of PBS, scrambled DNAzyme control (SCR), or indicated DNAzymes (162-murG, 207-murG, and 366-murG) on mature biofilms without or with the beta-lactam meropenem (FIGS. 6A-6B, respectively).
These findings were confirmed by SEM. Biofilms treated with sub-lethal concentrations of meropenem with control SCR DNAzyme were […] and had more texture. […] FIG. 6C presents an example of these findings, wherein SCR DNAzyme treated samples were compared to biofilms treated with murG162+meropenem.

[4] = tested on: Pseudomonas aeruginosa strain ATCC® BAA-3105™; test: Intracellular DNAzyme quantification in bacteria grown in media (qPCR / flow cytometry); details: LB + 32 μg/ml meropenem, 1.25 μM DNAzyme, 4 hours
Experimental: FIGS. 2A-2D. Uptake of fluorescent DNAzyme in media mimicking in vivo conditions, in the presence of subtoxic concentrations of meropenem as judged by flow cytometry. […] FIG. 2B is a graph showing the copy number of fluorescent murG-207 DNAzymes (Dz) per bacterium, as measured by flow cytometry. FIG. 2C is a graph showing uptake of fluorescent murG-207 DNAzyme in bacterial cells in a biofilm. Bacteria were grown under conditions favoring biofilm formation in TSB for 24 hours. Biofilm cells were separated from non-adhered cells, incubated with fluorescent murG-207 DNAzyme for 2 hours, and analyzed by flow cytometry. FIG. 2D is a graph showing uptake of DNAzymes in bacterial colonizing lung tissue samples (mouse lungs from naïve healthy mice). MDR-PA were grown with lung samples in DMEM with meropenem for 24 hours. […] In the histograms shown in FIGS. 2A, 2C, and 2D, arrows indicate which lines represent the basal fluorescence levels of the bacteria, and fluorescence of murG-207 DNAzyme with 3′cholesterol-TEG modification.
Flow cytometry. […] Data was analyzed using Kaluza Analysis 2.1 software using a C6 import module.
Intracellular DNAzyme quantification from bacterial cells. […] For intracellular extraction of the DNAzymes, cells were incubated for 10 minutes at 95° C., and supernatants were collected for quantification of intracellular DNAzymes. […]

5′-GATCAGGTG ggctagctacaacga AACGGCAGG-Chol-TEG-3′ (DNA GATCAGGTGGGCTAGCTACAACGAAACGGCAGG; DNA, 3' {CholTEG}, backbone and methylation of C not given here) [murG-162]
biofilm formation (crystal violet) [1]: biofilm inhibition
viable cells within the biofilm (CFU) [1]: significant reduction of viable cells
occurrence of areas thicker than 10 μm in dehydrated biofilms [2]: significantly reduced
effect on meropenem activity against pre-established biofilms [3]: potentiated the effect of meropenem
reduction of biofilm biomasses [3]: ~1 log

5′-CTTGACCAG ggctagctacaacga GACTTCAGG-Chol-TEG-3′ (DNA CTTGACCAGGGCTAGCTACAACGAGACTTCAGG; DNA, 3' {CholTEG}, backbone and methylation of C not given here) [murG-207, 10-23 DNAzyme targeting murG RNA transcript, cleavage site nt 207, 3′ cholesterol-TEG]
average copy number of DNAzymes per cell [4]: over 10,000 DNAzymes per cell
biofilm formation (crystal violet) [1]: biofilm inhibition
viable cells within the biofilm (CFU) [1]: significant reduction of viable cells
effect on meropenem activity against pre-established biofilms [3]: potentiated the effect of meropenem
reduction of biofilm biomasses [3]: ~1 log

5′-GGCGTTCTG ggctagctacaacga TCGTGGATC-Chol-TEG-3′ (DNA GGCGTTCTGGGCTAGCTACAACGATCGTGGATC; DNA, 3' {CholTEG}, backbone and methylation of C not given here) [murG-366, 10-23 DNAzyme targeting murG RNA transcript, cleavage site nt 366, 3′ cholesterol-TEG]
biofilm formation (crystal violet) [1]: biofilm inhibition
viable cells within the biofilm (CFU) [1]: significant reduction of viable cells
effect on meropenem activity against pre-established biofilms [3]: potentiated the effect of meropenem
reduction of biofilm biomasses [3]: ~1 log

5′-ACCACAATACCGAGATCGGTCGTGTCGGCATGA/3CholTEG/ (DNA, 3' {CholTEG}, backbone and methylation of C not given here) [Scr, control scramble DNAzyme, reference compound]
biofilm formation (crystal violet) [1]: did not show inhibition of biofilm formation
viable cells within the biofilm (CFU) [1]: did not show inhibition of biofilm formation or a reduction of viable cells
occurrence of areas thicker than 10 μm in dehydrated biofilms [2]: composed of areas thicker than 10 μm, areas of about 10 μm, and significantly thinner areas
